Here are results for 17 molecules from patent publication US8088897B2, “Assay method for group transfer reactions” (BellBrook Labs, Inc., priority 2003, dated 2012).

Where two headings read alike, the source gives them in different places.

Test [1] concerns Protein G-purified Anti-ADP antibody. As to the kind of experiment: FP competition with 5-FAM-N6-ADP tracer and anti-ADP polyclonal antibody. The format is binding, rabbit. The following applies: 1 nM 5-FAM-N6-ADP tracer; for IC50: 19 hours room temperature, read-out: half maximal point in the competition curve (IC50); for amount required to displace the tracer: compared with ADP and ATP. The text has this: To develop an anti-ADP antibody, 6-aminobutyl-ADP (Biolog Life Science Inst., Bremen, Germany) was conjugated to keyhole limpet hemocyanin with a suitable reagent such as glutaraldehyde and used to immunize rabbits. Other carrier proteins such as BSA or ovalbumin and other conjugation chemistries may be used. Attachment to carrier protein via the adenine ring exposes the ribosyl-phosphate moiety, where selectivity is required, and minimizes exposure of the adenine ring. The resulting antisera was tested for ADP binding affinity and selectivity in competitive fluorescence polarization binding assays. Synthesis of the fluor-ADP conjugates used as tracers in these binding assays is described below. […] The reaction mixtures consisted of 50 mM KPO4, 150 mM NaCl, 0.1 mg/mL BGG, 1 nM tracer, 3% Protein G-purified Anti-ADP antibody, and competitor. The reaction mixtures were incubated for 19 hours at room temperature. Competitors included ADP (∘), ATP (●), Adenosine (▪), and AMP (▴).

Test [2] concerns the target T1, SULT1E1 (Homo sapiens, UniProt P49888).
T1 construct: made in house; host or cells: E. coli
T1 sequence (P49888 1-294): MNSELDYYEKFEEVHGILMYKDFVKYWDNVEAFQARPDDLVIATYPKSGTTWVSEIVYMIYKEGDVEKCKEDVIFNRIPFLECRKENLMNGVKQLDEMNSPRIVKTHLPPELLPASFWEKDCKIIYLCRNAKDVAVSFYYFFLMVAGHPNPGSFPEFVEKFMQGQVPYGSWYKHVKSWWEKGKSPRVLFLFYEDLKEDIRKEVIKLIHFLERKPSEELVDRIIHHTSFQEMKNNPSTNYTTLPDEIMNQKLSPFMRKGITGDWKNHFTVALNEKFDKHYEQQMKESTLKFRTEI
Particulars: acceptor substrate; read-out: Km, published values for purified recombinant SULT1E1; cited from earlier work.

For another test, the system named is UGT 2B7 Baculosomes. As to the kind of experiment: Mock UGT reactions: signal stabilization and reaction quenching. The format is biochemical. Particulars: EGTA at 80 mM, sodium vanadate at 30 mM; for effect on UDP breakdown: 5 μM UDP added, no acceptor substrate. The method, then:
UGT enzymes are available only as crude membrane preparations that contain many other enzymes besides the desired UGT. Some of these contaminating enzymes can catalyze hydrolysis of the UDP molecule to UMP or Uridine, resulting in an unstable signal for the assay. To prevent this, agents such as sodium vanadate and EGTA are added to stabilize the assay signal by preventing breakdown of the UDP formed during the UGT reaction. […] The use of such a quenching reagent provides greater flexibility in experimental protocols because HTS assay plates may be read at any time after the quench reagent is added.

For test [3], the target named is polyclonal antibody raised against a mixture of UTP and UDP conjugated to KLH (UGT-1). Put plainly: Competitive FP displacement of UTP tracers from anti-UDP/UTP antibody by uridine nucleotides. The format is binding, rabbit. The method, then:
To detect UGT catalytic activity a series of experiments were performed using the antibodies and tracers described above. […] The antibody and 2 nM of a commercially available Alexa® 488-5-aminoalkynyl-UTP molecule (Molecular Probes) were added to wells of a black multiwell plate (Thermo Labsystems Pt# 7605) containing the indicated amounts of uridine nucleotides in 50 mM KPO4pH 7.5, 150 mM NaCl, 0.1 mg/ml BGG . Fluorescence polarization was read in a Tecan Ultra plate reader after several hours of equilibration at room temperature using a Ex485/Em535 filter set.
Applicants further note that the ability of the antibody to selectively recognize low micromolar concentrations of UDP in the presence of UDPGA concentrations typically used for UGT assays —50-100μM —is important for achieving a low signal to background. Varying the structure of the immunogen, as mentioned above, is one way to change the relative binding properties of antibodies for UDP and UDPGA. Another way that is not as immediately obvious is to vary the tracer structure. The method depends on the relative ability of UDP and UDPGA to competitively displace the tracer from antibody, and it is reasonable to assume that not all tracers will show the same relative response to the two nucleotides. An example of such tracer effects is summarized in FIGS. 10 A and B. In this example, two different tracers are compared. The tracers are conjugates of 5-aminoallyl UTP to two different amine reactive Alexa Fluors®, one with an excitation peak of 546 and the other with an excitation of 568. Both of these tracers are displaced from antibody (anti-UDP rabbit polyclonal Ab or UGT-1) in a similar manner by UDP. […] Thus, the signal to background of the UGT assay with a given antibody can be enhanced by identifying tracers that are displaced by UDP more effectively than UDPGA.

The target of test [4] is T1, SULT1E1. Put plainly: SULT1E1 enzymatic properties (Km, acceptor substrate specificity). The format is biochemical. Particulars: for acceptor substrate specificity: purified SULT1E1. The source says:
In order to establish a sulfotransferase HTS assay method, SULT1E1, a SULT isoform, was first subcloned into an E. coli expression vector with a C-terminal 6× histidine tag and the expressed protein was purified by affinity chromatography and characterized with respect to its physical and enzymatic properties.

The next test concerns Ab 3642. Put plainly: FP competition curves with Ab 3642 and PAP tracer. The format is binding, rabbit. Particulars: read-out: IC50 for displacement of tracer. The method, then: N6-PAP-6F8 tracer is represented by the open symbols: ◯ (PAP), □ (PAPS). C8-PAP-F14 tracer is represented with the closed symbols: ● (PAP), ▪ (PAPS). PAP or PAPS was serially diluted two-fold in black mutiwell plates containing 50 mM phosphate buffer (pH 7.4), 150 mM NaCl, 0.1 mg/mL BGG, 1 nM C8-PAP-F14, and 1.5 uL purified Ab 3642 in a total volume of 12 μl or 1 nM N6-PAP-F8 and 0.5 uL 3642 Ab in a 20 uL volume. Polarization values were read after one hour at room temperature.
(§1) Competitors were serially diluted two-fold in a black 384-well microtiter plate containing 50 mM phosphate buffer (pH 7.4), 150 mM NaCl, 0.1 mg/mL BGG, 1 nM Tracer C8-PAP-F14, and either 1.5 uL Ab 3642 (A) or 3 uL Ab 1781 (B) in a total volume of 12 uL. After one hour incubation at room temperature, the polarization values were read on a Tecan Ultra (Ex485/Em535). The mean and standard deviation of duplicates for all data sets are shown.

For another test, the system named is Ab 1781. As to the kind of experiment: FP competition curves with Ab 1781 and PAP tracer. The format is binding, rabbit. The following applies: 1 nM C8-PAP-F14 tracer, 3 uL Ab 1781; read-out: IC50 for displacement of tracer. The method, then:
as §1

Another test addresses GDP monoclonal antibody. Put plainly: FP competition binding of GDP vs GTP to monoclonal antibody-tracer complex. Also on record: species or system mouse. Particulars: 2 nM far red Tracer, 0.85 μg/mL antibody, one hour. How it is done: Fluorescence intensity and polarization measurements utilizing the ADP-Alexa Fluor® or GDP-Alexa Fluor® tracers were performed on a Tecan Ultra or Safire^2™ plate reader (Durham, N.C.) using appropriate filter sets. For the ADP-Alexa Fluor®633 tracer, the filters for the Safire2 were 635 nm excitiation (LED) and 670 emission (20 nm bandwidth). The free tracer reference was set to 20 mP, and the buffer (with or without antibody) was used as the buffer blank for both the sample and free tracer reference wells. Data from binding and competition curves were fit to a variable slope sigmoidal dose-response curve and the IC50 were calculated using GraphPad Prism (GraphPad Software, San Diego, Calif.).
To identify suitable antibody/tracer pairs for FP assay development, equilibrium binding assays were performed by titrating ADP/GDP antibodies with a panel of ADP/GDP tracers (1-2 nM). The first well consisted of 1 mg/mL antibody in 30 μL of the final equilibrium buffer (i.e. 50 mM HEPES (pH 7.5), 0.01% Brij-35, 1 mM EGTA, 2 mM MgCl2, 0.5% DMSO, 20 mM EDTA, and 2 nM tracer). A two-fold serial dilution of the antibody was then performed in 15 μL of the same buffer. […]
In one example, the monoclonal antibody binding selectivity between GDP vs. GTP was analyzed and the results are set forth in FIG. 27. […]

The mark [5] stands for this setting: Alexa 546 5-aminoallyl UTP tracer, UGT-1, read-out: IC50 for displacement of tracer from antibody.
Where [6] appears, read: 1 nM C8-PAP-F14 tracer, 1.5 uL Ab 3642.
[7] abbreviates: 2 nM Alexa 488-5-aminoalkynyl-UTP tracer, UGT-1 antibody, read-out: half maximal values (IC50) for competing off the tracer.

A word on the IC50: it is the concentration that inhibits the measured activity by half. In the case of `Nc1ncnc2c1ncn2[C@@H]1O[C@H](COP(=O)(O)OP(=O)(O)O)[C@@H](O)[C@H]1O` [ADP, adenosine diphosphate], the IC50 in test [1] stood at 0.3 µM.

Usually Km stands for the substrate concentration at which the rate is half of its maximum. As to `C[C@]12CC[C@@H]3c4ccc(O)cc4CC[C@H]3[C@@H]1CC[C@@H]2O` [estradiol], the Michaelis-Menten constant (Km) at SULT1E1 [2] was 0.005 to 0.015 µM.

For the molecule `Nc1ncnc2c1ncn2[C@@H]1O[C@H](COP(=O)(O)OP(=O)(O)OP(=O)(O)O)[C@@H](O)[C@H]1O` [ATP, adenosine triphosphate], the 50% inhibitory concentration (IC50) in test [1] worked out at 15 µM.

Sodium vanadate: in the test on UGT 2B7 Baculosomes, the “effect on UGT activity” value is given as “very effectively inhibits UGT activity” and the “effect on UDP breakdown” value is reported as “prevents UDP breakdown”.

In the case of `O=C(O)CN(CCOCCOCCN(CC(=O)O)CC(=O)O)CC(=O)O` [EGTA], in the test with UGT 2B7 Baculosomes, the “effect on UGT activity” value is listed as “minimal effects” and the “effect on UDP breakdown” value was “very effectively inhibits UDP breakdown”.

As for `O=C(O)[C@H]1O[C@H](OP(=O)(O)OP(=O)(O)OC[C@H]2O[C@@H](n3ccc(=O)[nH]c3=O)[C@H](O)[C@@H]2O)[C@H](O)[C@@H](O)[C@@H]1O` [UDPGA, UDP-glucuronic acid], the IC50 is approximately 2000 µM in test [3] (2 nM Alexa 488-5-aminoalkynyl-UTP tracer, UGT-1 antibody, read-out: IC50 for competing off the tracer) and 1200 µM in test [3] (setting [5]).

Take `Oc1cccc2ccccc12` [α-naphthol]: on SULT1E1 [4], the acceptor substrate specificity entry is on record as “intermediate”.

In the case of `Nc1ncnc2c1ncn2[C@@H]1O[C@H](CO)[C@@H](O)[C@H]1O` [adenosine, Adenosine], the “amount required to displace the tracer” value in test [1] is reported as “much higher amounts”.

Take `Nc1ncnc2c1ncn2[C@@H]1O[C@H](COP(=O)(O)O)[C@@H](OP(=O)(O)O)[C@H]1O` [PAP, 3′-phosphoadenosine 5′-phosphate]: the IC50 in the test with Ab 3642 (setting [6]) was found to be 0.3 µM; with Ab 3642 (C8-PAP-F14 tracer, Ab 3642), 0.3 µM; in the test with Ab 1781 it was 0.3 µM.

For `NCCc1ccc(O)c(O)c1` [dopamine], the acceptor substrate specificity result on SULT1E1 [4] is reported as “very poor substrates”.

As to `O=c1ccn([C@@H]2O[C@H](COP(=O)(O)OP(=O)(O)O)[C@@H](O)[C@H]2O)c(=O)[nH]1` [UDP], the IC50 is 15 µM in test [3] (setting [7]); 7 µM in test [3] (setting [5]); 9 µM in test [3] (Alexa 568 5-aminoallyl UTP tracer, UGT-1, read-out: IC50 for displacement of tracer from antibody).

For the molecule `Nc1ncnc2c1ncn2[C@@H]1O[C@H](COP(=O)(O)OS(=O)(=O)O)[C@@H](OP(=O)(O)O)[C@H]1O` [PAPS, 3′-Phosphoadenosine 5′-phosphosulphate], the results for the IC50 with Ab 3642 (setting [6]) and in the test on Ab 1781 were 3.8 µM and 1.5 µM, respectively. The Km at SULT1E1 [4] (donor, read-out: Km for PAPS with SULT1E1) was approximately 0.05 µM.

Turning to `O=c1ccn([C@@H]2O[C@H](COP(=O)(O)OP(=O)(O)OP(=O)(O)O)[C@@H](O)[C@H]2O)c(=O)[nH]1` [UTP], in test [3] (setting [7]), the IC50 was found to be 5 µM.

On to `Nc1ncnc2c1ncn2[C@@H]1O[C@H](COP(=O)(O)O)[C@@H](O)[C@H]1O` [AMP], for which the “amount required to displace the tracer” value in test [1] is “much higher amounts”.

For the molecule `Nc1nc2c(ncn2[C@@H]2O[C@H](COP(=O)(O)OP(=O)(O)O)[C@@H](O)[C@H]2O)c(=O)[nH]1` [GDP, guanosine diphosphate], at GDP monoclonal antibody, the IC50 came to 0.01 µM.

Take `C[C@]12CC[C@H](O)CC1=CC[C@@H]1[C@@H]2CC[C@]2(C)C(=O)CC[C@@H]12` [DHEA]: the acceptor substrate specificity entry at SULT1E1 [4] is reported as “very poor substrates”.

With `Nc1nc2c(ncn2[C@@H]2O[C@H](COP(=O)(O)OP(=O)(O)OP(=O)(O)O)[C@@H](O)[C@H]2O)c(=O)[nH]1` [GTP, guanosine triphosphate], the IC50 at GDP monoclonal antibody amounted to 1.3 µM.
